Entries after “also recorded” stand apart in the source; their conditions may differ.
Legend:
[1] = system: microorganisms; test: Morphology, biofilm and growth disruption by peptides (Table 5); assay type: cell-based; parameters: key: A: Peptide aggregates; B: Less hyphal formation; Clumps; Diffuse clumps and small polyps; F: Diffuse growth; H: Thin; I: Growth inhibition; Microcolony formation; Rippled; Small polyps; Thick; W: Halo formation on top, microlonies on bottom
From the text: In certain embodiments peptides that induce alterations in phenotype or other biological activities can also be used as antimicrobial effector moieties.

[2] = system: bacteria; test: Binding of targeting peptides to microorganisms (Table 3); conditions: peptide binding in aqueous buffers that varied depending on peptide solubility; preferably 1x PBS

| Substance | Organism, effect (morphology, biofilm and growth disruption) ([1]; C. albicans) | Organism, effect (morphology, biofilm and growth disruption) ([1]; E. faecalis) | Organism, effect (morphology, biofilm and growth disruption) ([1]; MRSA) | Organism, effect (morphology, biofilm and growth disruption) ([1]; S. pneumoniae) | Target(s) (microorganism bound by the targeting peptide) [2] | Organism, effect (morphology, biofilm and growth disruption) ([1]; B. subtilis) | Organism, effect (morphology, biofilm and growth disruption) ([1]; S. epidermidis) | Organism, effect (morphology, biofilm and growth disruption) ([1]; C. jeikeium) |
| --- | --- | --- | --- | --- | --- | --- | --- | --- |
| PF-639 (chain 1 QATQIKSWIDRLLVSED; chain 2 QATQIKSWIDRLLVSED; Peptide with targeting and/or antimicrobial activity) | C. albicans (B) | E. faecalis (H) | MRSA (R) | S. pneumoniae (I) | S. pneumoniae; also recorded: C. jeikeium |  |  |  |
| PF-640 (chain 1 MGDINRNF; chain 2 MGDINRNF; Peptide with targeting and/or antimicrobial activity) | C. albicans (B) | E. faecalis (H) |  | S. pneumoniae (I) | C. albicans |  |  |  |
| PF-642 (chain 1 FTTPMIGIPAGLLGGSYYLKRREEKGK; chain 2 FTTPMIGIPAGLLGGSYYLKRREEKGK; Peptide with targeting and/or antimicrobial activity) |  |  | MRSA (M) |  | M. luteus and MRSA and C. jeikeium |  |  |  |
| PF-643 (chain 1 VRCRL; chain 2 VRCRL; Peptide with targeting and/or antimicrobial activity) |  | E. faecalis (R) | MRSA (C) | S. pneumoniae (R) | Mycobacteria spp |  |  |  |
| PF-644 (chain 1 TSGLIIGENGLNGL; chain 2 TSGLIIGENGLNGL; Peptide with targeting and/or antimicrobial activity) |  |  |  | S. pneumoniae (H) | Mycobacteria spp |  |  |  |
| PF-645 (chain 1 SNSVQQG; chain 2 SNSVQQG; Peptide with targeting and/or antimicrobial activity) | C. albicans (B) |  |  | S. pneumoniae (I) | Mycobacteria spp |  |  |  |
| PF-646 (chain 1 APASPGRRPG; chain 2 APASPGRRPG; Peptide with targeting and/or antimicrobial activity) | C. albicans (B) |  |  | S. pneumoniae (H) | Mycobacteria spp |  |  |  |
| PF-647 (chain 1 GTFLGQKCAAATAS; chain 2 GTFLGQKCAAATAS; Peptide with targeting and/or antimicrobial activity) | C. albicans (B) |  |  | S. pneumoniae (R) | Mycobacteria spp |  |  |  |
| PF-649 (chain 1 CPRYPFVDVGPAGPWRARWRVGS; chain 2 CPRYPFVDVGPAGPWRARWRVGS; Peptide with targeting and/or antimicrobial activity) |  | E. faecalis (R) |  |  | Mycobacteria spp |  |  |  |
| PF-651 (chain 1 PRWPTGAGRHR; chain 2 PRWPTGAGRHR; Peptide with targeting and/or antimicrobial activity) |  |  |  | S. pneumoniae (H) | Mycobacteria spp |  |  |  |
| PF-652 (chain 1 FLAPARPDLQAQRQALAQ; chain 2 FLAPARPDLQAQRQALAQ; Peptide with targeting and/or antimicrobial activity) |  |  |  | S. pneumoniae (A) | Mycobacteria spp |  |  |  |
| PF-653 (chain 1 QSVHPLPAETPVADVI; chain 2 QSVHPLPAETPVADVI; Peptide with targeting and/or antimicrobial activity) |  |  |  | S. pneumoniae (H) | Mycobacteria spp |  |  |  |
| PF-654 (chain 1 LSGRLAGRR; chain 2 LSGRLAGRR; Peptide with targeting and/or antimicrobial activity) | C. albicans (B) |  | MRSA (R) | S. pneumoniae (A) | Mycobacteria spp |  |  |  |
| PF-655 (chain 1 DAPCFDDQFGDLKCQMC; chain 2 DAPCFDDQFGDLKCQMC; Peptide with targeting and/or antimicrobial activity) |  |  | MRSA (M) | S. pneumoniae (H) | M. smegmatis | B. subtilis (H) | S. epidermidis (R) |  |
| PF-656 (chain 1 RGMFVPFHDVDCVQ; chain 2 RGMFVPFHDVDCVQ; Peptide with targeting and/or antimicrobial activity) |  |  | MRSA (R) |  | Mycobacteria spp |  |  |  |
| PF-657 (chain 1 YVANYTITQFGRDFDDRLAVAIHFA; chain 2 YVANYTITQFGRDFDDRLAVAIHFA; Peptide with targeting and/or antimicrobial activity) |  | E. faecalis (D) | MRSA (D) | S. pneumoniae (H) | Mycobacteria spp |  | S. epidermidis (C) | C. jeikeium (D) |
| PF-658 (chain 1 PTTPPPTTPPEIPTGGTVIST; chain 2 PTTPPPTTPPEIPTGGTVIST; Peptide with targeting and/or antimicrobial activity) |  |  | MRSA (R) | S. pneumoniae (H) | Mycobacteria spp |  |  |  |
| PF-659 (chain 1 TVIST; chain 2 TVIST; Peptide with targeting and/or antimicrobial activity) |  |  | MRSA (R) | S. pneumoniae (C) | Mycobacteria spp | B. subtilis (H) | S. epidermidis (M) |  |
| PF-660 (chain 1 TDPQATAAPRRRTSPR; chain 2 TDPQATAAPRRRTSPR; Peptide with targeting and/or antimicrobial activity) |  |  |  | S. pneumoniae (H) | Mycobacteria spp |  |  |  |
| PF-661 (chain 1 PDEDIRRRAILPPAGPCRPMSPE; chain 2 PDEDIRRRAILPPAGPCRPMSPE; Peptide with targeting and/or antimicrobial activity) |  |  | MRSA (R) |  | Mycobacteria spp |  |  |  |
| PF-662 (chain 1 GKQSRAHGPVASRREFRRKSG; chain 2 GKQSRAHGPVASRREFRRKSG; Peptide with targeting and/or antimicrobial activity) |  |  |  | S. pneumoniae (A) | Mycobacteria spp |  |  |  |
| PF-663 (chain 1 ATLIPRKA; chain 2 ATLIPRKA; Peptide with targeting and/or antimicrobial activity) |  |  |  | S. pneumoniae (A) | Mycobacteria spp |  |  |  |
| PF-664 (chain 1 DQLCVEYPARVSTG; chain 2 DQLCVEYPARVSTG; Peptide with targeting and/or antimicrobial activity) |  | E. faecalis (R) | MRSA (R) | S. pneumoniae (M) | M. smegmatis |  | S. epidermidis (M) |  |
| PF-665 (chain 1 VLRVATAVGEVPTGL; chain 2 VLRVATAVGEVPTGL; Peptide with targeting and/or antimicrobial activity) |  |  |  | S. pneumoniae (H) | Mycobacteria spp |  |  |  |
| PF-666 (chain 1 PNRRSRPR; chain 2 PNRRSRPR; Peptide with targeting and/or antimicrobial activity) |  |  |  | S. pneumoniae (A) | Mycobacteria spp |  |  |  |

— US9597407B2, “Targeted antimicrobial moieties” (C3 Jian, Inc., priority 2009, dated 2017)
